From patent US20060293315A1, “Intermediates of novel heterocyclic compounds having antibacterial activity and process for their preparation” (Dr. Reddy's Laboratories Ltd., priority 2001, published 2006)
Values after ≈ are worked out from the molar mass of the structure shown.

Legend:
[1] = system: Staphylococcus aureus 035 S (ATCC 29213); test: MIC by broth microdilution, Staphylococcus aureus 035 S; assay type: cell-based; settings: ATCC29213, DRCC 035, S, broth microdilution in MHB, read-out: Antimicrobial Screening (MIC) Staphylococcus aureus 035 S
Protocol: (§1) Minimum Inhibiton Concentrations (MICs) were determined by broth microdilution technique as per the guidelines prescribed in the fifth edition of Approved Standards, NCCLS document M7-A5 Vol 20-No 2, 2000 Villinova, Pa.
(§2) Initial stock solution of the test compound was prepared in DMSO. Subsequent two fold dilutions were carried out in sterile Mueller Hinton Broth (Difco) (MHB).
(§3) Frozen cultures stocks were inoculated into 50 ml sterile MHB in 250 ml Erlyn Meyer flasks.
(§4) Composition of MHB is as follows:
(§5) Flasks were incubated for 4 to 5 h at 35° C. on a rotary shaker at 150 rpm. Inoculum was prepared by diluting the culture in sterile MHB to obtain a turbidity of 0.5 McFarland standard. This corresponds to 1-2×10^8 CFU/ml. The stock was further diluted in sterile broth to obtain 1-2×10^6 CFU/ml. 50 μl of the above diluted inoculum was added from 1-10 wells. The plates were incubated overnight at 37° C.

[2] = system: Staphylococcus aureus 019 MRSA (ATCC 33591); test: MIC by broth microdilution, Staphylococcus aureus 019 MRSA; assay type: cell-based; settings: DRCC 019, MRSA, broth microdilution in MHB, read-out: Antimicrobial Screening (MIC) Staphylococcus aureus 019 MRSA
Protocol: as §1, §2, §3, §4, §5

[3] = system: Staphylococcus aureus 213 Smith S (ATCC 49951); test: MIC by broth microdilution, Staphylococcus aureus 213 Smith S; assay type: cell-based; settings: ATCC49951, DRCC 213, Smith S, broth microdilution in MHB, read-out: Antimicrobial Screening (MIC) Staphylococcus aureus 213 Smith S
Protocol: as §1, §2, §3, §4, §5

[4] = system: Enterococcus sp 153 R (Enterococcus faecalis NCTC 12201); test: MIC by broth microdilution, Enterococcus sp 153 R; assay type: cell-based; settings: NCTC12201, DRCC 153, R, broth microdilution in MHB, read-out: Antimicrobial Screening (MIC) Enterococcus sp 153 R
Protocol: as §1, §2, §3, §4, §5

[5] = system: M. catarrhalis 300 (Moraxella catarrhalis ATCC 25238); test: MIC by broth microdilution, M. catarrhalis 300; assay type: cell-based; settings: ATCC25238, DRCC 300, broth microdilution in MHB, read-out: Antimicrobial Screening (MIC) M. catarrhalis 300
Protocol: as §1, §2, §3, §4, §5

Salmorella TA 97 = test: MIC by broth microdilution, Salmorella TA 97; assay type: cell-based; settings: read-out: Antimicrobial Screening (MIC) Salmorella TA 97
Protocol: as §1, §2, §3, §4, §5

[6] = system: Enterococcus sp 154 R (Enterococcus faecium NCTC 12202); test: MIC by broth microdilution, Enterococcus sp 154 R; assay type: cell-based; settings: NCTC12202, DRCC 154, R, broth microdilution in MHB, read-out: Antimicrobial Screening (MIC) Enterococcus sp 154 R
Protocol: as §1, §2, §3, §4, §5

[7] = system: H. influenzae 432 (Haemophilus influenzae ATCC 49247); test: MIC by broth microdilution, H. influenzae 432; assay type: cell-based; settings: ATCC49247, DRCC 432, broth microdilution in MHB, read-out: Antimicrobial Screening (MIC) H. influenzae 432
Protocol: as §1, §2, §3, §4, §5

[8] = system: Enterococcus sp 034 S (Enterococcus faecalis ATCC 29212); test: MIC by broth microdilution, Enterococcus sp 034 S; assay type: cell-based; settings: ATCC29212, DRCC 034, S, broth microdilution in MHB, read-out: Antimicrobial Screening (MIC) Enterococcus sp 034 S
Protocol: as §1, §2, §3, §4, §5

[9] = system: H. influenzae 433 (Haemophilus influenzae ATCC 49766); test: MIC by broth microdilution, H. influenzae 433; assay type: cell-based; settings: ATCC49766, DRCC 433, broth microdilution in MHB, read-out: Antimicrobial Screening (MIC) H. influenzae 433
Protocol: as §1, §2, §3, §4, §5

Mycobacterium MTCC 006 = test: MIC by broth microdilution, Mycobacterium MTCC 006; assay type: cell-based; settings: MTCC006, broth microdilution in MHB, read-out: Antimicrobial Screening (MIC) Mycobacterium MTCC 006
Protocol: as §1, §2, §3, §4, §5

[10] = system: H. influenzae 529 (Haemophilus influenzae ATCC 9006); test: MIC by broth microdilution, H. influenzae 529; assay type: cell-based; settings: ATCC9006, DRCC 529, broth microdilution in MHB, read-out: Antimicrobial Screening (MIC) H. influenzae 529
Protocol: as §1, §2, §3, §4, §5

CCOC(=S)NC[C@H]1CN(c2ccc(N3CCN(Cc4ccccc4)C3=O)cc2)C(=O)O1 [Example 146]
melting point: 160 °C

COC(=S)NC[C@H]1CN(c2ccc(N3CCN(c4ccccc4)C3=O)c(F)c2)C(=O)O1 [Example 147]
melting point: 174 °C

CCOC(=S)NC[C@H]1CN(c2ccc(N3CCN(c4ccccc4)C3=O)c(F)c2)C(=O)O1 [Example 148]
melting point: 195 °C

COC(=S)NC[C@H]1CN(c2ccc(N3CCN(c4ccc(F)cc4)C3=O)c(F)c2)C(=O)O1 [Example 149]
melting point: 208 °C

CCOC(=S)NC[C@H]1CN(c2ccc(N3CCN(c4ccc(F)cc4)C3=O)c(F)c2)C(=O)O1 [Example 150]
melting point: 215 °C

CC(C)OC(=S)NC[C@H]1CN(c2ccc(N3CCN(c4ccc(F)cc4)C3=O)c(F)c2)C(=O)O1 [Example 151]
melting point: 220 °C

CN(C)CCOC(=S)NC[C@H]1CN(c2ccc(N3CCOC3=O)cc2)C(=O)O1 [Example 152]
melting point: 161 °C

COC(=S)NC[C@H]1CN(c2ccc(N3CC(=O)N(Cc4ccc(OC)cc4)C3)c(F)c2)C(=O)O1 [Example 153]
melting point: 158 °C

CC(C)OC(=S)NC[C@H]1CN(c2ccc(N3CC(=O)N(Cc4ccccc4)C3)c(F)c2)C(=O)O1 [Example 154]
melting point: 192 °C

COC(=S)NC[C@H]1CN(c2ccc(N3CC(=O)N(CO)C3)c(F)c2)C(=O)O1 [Example 155]
melting point: 184 °C

COC(=S)NC[C@H]1CN(c2ccc(N3CC(=O)N(CO)C3)cc2)C(=O)O1 [Example 157]
melting point: 202 to 208 °C

COC(=S)NC[C@H]1CN(c2ccc(N3CNC(=O)C3)cc2)C(=O)O1 [Example 158]
melting point: 205 to 210 °C

CCCCN1CN(c2ccc(N3C[C@H](CNC(=S)OC)OC3=O)cc2F)CC1=O [Example 160]
melting point: 122 °C

C=CCN1CN(c2ccc(N3C[C@H](CNC(=S)OC)OC3=O)cc2F)CC1=O [Example 161]
melting point: 86 °C

COC(=S)NC[C@H]1CN(c2cc(F)c(N3CC(=O)N(C)C3)c(F)c2)C(=O)O1 [Example 164]
MIC [1]: 0.5 µg/mL (≈ 1.25 µM)
MIC [2]: 0.25 µg/mL (≈ 0.624 µM)
MIC [3]: 0.5 µg/mL (≈ 1.25 µM)
MIC [4]: 0.5 µg/mL (≈ 1.25 µM)
MIC [5]: 8 µg/mL (≈ 20 µM)
MIC (Salmorella TA 97): 16 µg/mL (≈ 40 µM)
MIC [6]: 0.5 µg/mL (≈ 1.25 µM)
MIC [7]: 8 µg/mL (≈ 20 µM)
MIC [8]: 0.5 µg/mL (≈ 1.25 µM)
MIC [9]: 16 µg/mL (≈ 40 µM)
MIC (Mycobacterium MTCC 006): 4 µg/mL (≈ 9.99 µM)
MIC [10]: 16 µg/mL (≈ 40 µM)

CCCOC(=S)NC[C@H]1CN(c2cc(F)c(N3CNC(=O)C3)c(F)c2)C(=O)O1 [Example 165]
MIC [1]: 1 µg/mL (≈ 2.41 µM)
MIC [2]: 1 µg/mL (≈ 2.41 µM)
MIC [3]: 1 µg/mL (≈ 2.41 µM)
MIC [4]: 2 µg/mL (≈ 4.83 µM)
MIC [5]: > 32 µg/mL
MIC (Salmorella TA 97): 32 µg/mL (≈ 77.2 µM)
MIC [6]: 2 µg/mL (≈ 4.83 µM)
MIC [7]: > 32 µg/mL
MIC [8]: 2 µg/mL (≈ 4.83 µM)
MIC [9]: > 32 µg/mL
MIC (Mycobacterium MTCC 006): 32 µg/mL (≈ 77.2 µM)
MIC [10]: > 32 µg/mL
melting point: 186 to 188 °C

COC(=S)NC[C@H]1CN(c2cc(F)c(N3CC(=O)N(CC(=O)OC(C)(C)C)C3)c(F)c2)C(=O)O1 [Example 168]
MIC [1]: 2 µg/mL (≈ 4 µM)
MIC [2]: 2 µg/mL (≈ 4 µM)
MIC [3]: 2 µg/mL (≈ 4 µM)
MIC [4]: 1 µg/mL (≈ 2 µM)
MIC (Salmorella TA 97): 32 µg/mL (≈ 63.9 µM)
MIC [6]: 2 µg/mL (≈ 4 µM)
MIC [8]: 2 µg/mL (≈ 4 µM)
MIC (Mycobacterium MTCC 006): 32 µg/mL (≈ 63.9 µM)

COC(=O)CN1CN(c2c(F)cc(N3C[C@H](CNC(=S)OC)OC3=O)cc2F)CC1=O [Example 169]
MIC [1]: 2 µg/mL (≈ 4.36 µM)
MIC [2]: 1 µg/mL (≈ 2.18 µM)
MIC [3]: 1 µg/mL (≈ 2.18 µM)
MIC [4]: 0.5 µg/mL (≈ 1.09 µM)
MIC (Salmorella TA 97): 32 µg/mL (≈ 69.8 µM)
MIC [6]: 1 µg/mL (≈ 2.18 µM)
MIC [8]: 0.5 µg/mL (≈ 1.09 µM)
MIC (Mycobacterium MTCC 006): 8 µg/mL (≈ 17.5 µM)

COC(=S)NC[C@H]1CN(c2ccc(N3CC(=S)N(C)C3)c(F)c2)C(=O)O1 [Example 177]
melting point: 195 °C

COCN1CN(c2ccc(N3C[C@H](CNC(=S)OC)OC3=O)cc2F)CC1=O [Example 178]
melting point: 160 °C

COC(=S)NC[C@H]1CN(c2ccc(N3CC(=O)N(Cc4ccccc4)C3)c(F)c2)C(=O)O1 [Example 179]
melting point: 176 °C

CCOC(=S)NC[C@H]1CN(c2ccc(N3CC(=O)N(Cc4ccccc4)C3)c(F)c2)C(=O)O1 [Example 180]
melting point: 184 °C

O=C1OCCN1c1ccc(N2C[C@H](CNC(=S)N3CCC[C@H]3CO)OC2=O)cc1 [Example 182]
melting point: 159 °C

CCN(CC)C(=S)NC[C@H]1CN(c2ccc(N3CCOC3=O)cc2)C(=O)O1 [Example 183]
melting point: 103 °C

C=CCNC(=S)NC[C@H]1CN(c2ccc(N3CCOC3=O)cc2)C(=O)O1 [Example 184]
melting point: 171 °C

O=C1OCCN1c1ccc(N2C[C@H](CNC(=S)NCc3ccccc3)OC2=O)cc1 [Example 185]
melting point: 181 °C

COc1ccc(CNC(=S)NC[C@H]2CN(c3ccc(N4CCOC4=O)cc3)C(=O)O2)cc1 [Example 186]
melting point: 169 °C

O=C1OCCN1c1ccc(N2C[C@H](CNC(=S)NCc3ccccn3)OC2=O)cc1 [Example 187]
melting point: 165 °C

CNC(=S)NC[C@H]1CN(c2ccc(N3CCOC3=O)cc2)C(=O)O1 [Example 188]
melting point: 175 °C

O=C1OCCN1c1ccc(N2C[C@H](CNC(=S)NCCO)OC2=O)cc1 [Example 189]
melting point: 161 °C

O=C1OCCN1c1ccc(N2C[C@H](CNC(=S)N3CCSCC3)OC2=O)cc1 [Example 190]
melting point: 159 °C

O=C1OCCN1c1ccc(N2C[C@H](CNC(=S)Nc3ccccn3)OC2=O)cc1 [Example 191]
melting point: 189 °C

NC(=S)NC[C@H]1CN(c2ccc(N3CCOC3=O)c(F)c2)C(=O)O1 [Example 192]
melting point: 178 °C

CNC(=S)NC[C@H]1CN(c2ccc(N3CCOC3=O)c(F)c2)C(=O)O1 [Example 193]
melting point: 144 °C

NC(=S)NC[C@H]1CN(c2cc(F)c(N3CCOC3=O)c(F)c2)C(=O)O1 [Example 194]
melting point: 92 °C

CNC(=S)NC[C@H]1CN(c2cc(F)c(N3CCOC3=O)c(F)c2)C(=O)O1 [Example 195]
melting point: 113 °C

COC(=S)N(C)C[C@H]1CN(c2cc(F)c(N3CNC(=O)C3)c(F)c2)C(=O)O1 [Example 198]
melting point: 154 to 156 °C
